System: SARS-CoV S protein
Type: cell-based

CC(=O)N[C@@H](CC(C)C)C(=O)N[C@@H](CC(C)C)C(=O)N[C@H](C=O)CCCNC(=N)N [leupeptin]
effect on cell-cell fusion: reduced

— patent publication US20070203073A1 (priority 2005, published 2007)
